Source: patent US11369585B2, “Compositions, methods, systems and/or kits for preventing and/or treating neoplasms” (Research Cancer Institute of America, priority 2017, dated 2022)

Columns and labels:
[1] = system: serous ovarian carcinoma lesions; assay: Case study 2: whole body PET scan and abdominal CT scan restaging; conditions: Niraparib 300 mg daily only
[2] = system: stage four pancreatic cancer; assay: Case study 3: laboratory tests (VEGF, IL-8, TGF, CA 19.9); assay type: in vivo, human; conditions: two months without epigenetic therapies, Lynparza continued; increased from 8565
Description: (§1) This is a case study of a person with history of stage four pancreatic cancer who was diagnosed after abdominal pain, with adenocarcinoma of pancreas metastasized to their liver. They had explored all potential therapies and their oncologist had given them less than 3 months to live and had referred them to hospice.
They were immediately started on daily IV epigenetic therapies in combination with PARP inhibitors, which they received for two weeks after which their laboratory tests were repeated.
(§2) After two weeks of epigenetic therapies, his VEGF decreased from 248 to 70.
(§3) Thus, Lynparza alone was not sufficient to retard tumor growth. Upon their return to the clinic, their tumor marker CA 19.9 was analyzed.

[3] = system: cfDNA somatic alterations; assay: Case study 3: Guardant360 % cfDNA with somatic alterations; assay type: in vivo, human; conditions: Lynparza alone
Description: Therefore, clinical correlation is advised.
as §2
For example, KRAS mutant allele frequency (MAF) decreased from over 50 percent to 5.6, TP53 decreased from over 50 percent down to 5.1 percent (FIG. 19).

[4] = system: adenocarcinoma of pancreas metastasized to liver; assay: Case study 3: clinical course; assay type: in vivo, human; conditions: epigenetic therapies stopped, Lynparza continued
Description: as §1
They were able to walk again independently. They started to do clinically well. […] Edema in their lower extremities improved.
as §3

[5] = system: triple negative breast cancer; conditions: cited from earlier work
[6] = cited from earlier work
glioma cells = conditions: cited from earlier work
[7] = abdominal CT about one month after stopping epigenetic therapies, from 16 mm

SMILES: NC(=O)c1cccc2cn(-c3ccc([C@@H]4CCCNC4)cc3)nc12 [Niraparib]
- abdominal mesenteric artery LN size [1, 7]: 28 mm
- retroperitoneal node size [1, 7]: 21 mm
- periaortic nodes size ([1]; abdominal CT about one month after stopping epigenetic therapies, from 24 mm): 32 mm
- overall response on abdominal CT scan ([1]; about one month after stopping epigenetic therapies): mixed response with progression

SMILES: O=C(c1cc(Cc2n[nH]c(=O)c3ccccc23)ccc1F)N1CCN(C(=O)C2CC2)CC1 [Lynparza]
- tumor marker CA 19.9 [2]: 45988
- cfDNA gene alterations (FGF2, C Myc, EGFR, PI3K, CDK4, CDK6, NF-1, KIT, TP53, PDGF, KRAS, BRCA1) [3]: did not change
- disease course [4]: their disease progressed

SMILES: NC(=O)c1ccc(I)c([N+](=O)[O-])c1 [Iniparib]
- phase II trial outcome ([5]; in vivo): promising results
- survival in phase III trial ([5]; patients also received cytotoxic chemotherapy): no improvement in survival

SMILES: O=c1c(O)c(-c2ccc(O)c(O)c2)oc2cc(O)cc(O)c12 [quercetin]
- water solubility [6]: not water soluble
- effect on angiogenesis (glioma cells): suppression of angiogenesis
